Measurements taken from patent publication US10301306B2, “Substituted dihydro-1H-pyrrolo[3,2-c]pyridin-4(5H)-ones as RIPK3 inhibitors” (BRISTOL-MYERS SQUIBB COMPANY, priority 2014, dated 2019).

target: RIPK3 (Homo sapiens (Human), UniProt Q9Y572); experiment: RIPK3 HTRF Kinase Assay; format: binding; conditions: RIPK3 1 nM; HTRF probe 23 nM; 60 min at room temperature; read-out: IC50 for Inhibition of RIPK3
Sequence (Q9Y572 whole entry, species assumed): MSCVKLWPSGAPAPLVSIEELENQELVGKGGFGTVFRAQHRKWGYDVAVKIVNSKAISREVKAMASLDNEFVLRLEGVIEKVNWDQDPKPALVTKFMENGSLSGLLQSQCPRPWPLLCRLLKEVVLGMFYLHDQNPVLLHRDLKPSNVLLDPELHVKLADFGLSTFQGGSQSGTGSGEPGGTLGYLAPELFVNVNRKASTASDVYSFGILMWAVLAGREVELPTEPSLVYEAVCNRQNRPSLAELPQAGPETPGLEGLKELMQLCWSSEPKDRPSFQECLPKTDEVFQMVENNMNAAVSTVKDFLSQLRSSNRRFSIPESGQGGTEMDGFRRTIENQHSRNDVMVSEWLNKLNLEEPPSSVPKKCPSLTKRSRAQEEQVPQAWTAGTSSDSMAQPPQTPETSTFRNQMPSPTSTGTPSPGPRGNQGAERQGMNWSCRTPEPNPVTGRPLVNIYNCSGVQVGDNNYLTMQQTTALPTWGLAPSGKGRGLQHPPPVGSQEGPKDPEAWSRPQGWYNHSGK

Compound | IC50
CC(C)(C)Cn1c2c(c(-c3ccc(F)cc3)c1-c1ccncc1)C(=O)NCC2 [Example 61] | 100 to 15000 nM
CCn1c2c(c(-c3ccc(F)cc3)c1-c1ccncc1)C(=O)NCC2 [Example 62] | 100 to 15000 nM
CCC(C)n1c2c(c(-c3ccc(F)cc3)c1-c1ccncc1)C(=O)NCC2 (centres unmarked) [Example 63] | 100 to 15000 nM
O=C1NCCc2c1c(-c1ccc(F)cc1)c(-c1ccncc1)n2Cc1ccc(F)cc1F [Example 64] | < 30 nM
Cc1cc(Cn2c3c(c(-c4ccc(F)cc4)c2-c2ccncc2)C(=O)NCC3)n(C)n1 [Example 65] | < 30 nM
O=C1NCCc2c1c(-c1ccc(F)cc1)c(-c1ccncc1)n2Cc1ccncc1 [Example 66] | < 30 nM
COc1cc(C(F)(F)F)ccc1Cn1c2c(c(-c3ccc(F)cc3)c1-c1ccncc1)C(=O)NCC2 [Example 67] | 31 to 100 nM
N#Cc1ccccc1Cn1c2c(c(-c3ccc(F)cc3)c1-c1ccncc1)C(=O)NCC2 [Example 68] | < 30 nM
O=C1NCCc2c1c(-c1ccc(F)cc1)c(-c1ccncc1)n2CCCO [Example 69] | 31 to 100 nM
O=C1NCCc2c1c(-c1ccc(F)cc1)c(-c1ccncc1)n2CC(=O)N1CCCC1 [Example 70] | 31 to 100 nM
O=C1NCCc2c1c(-c1ccc(F)cc1)c(-c1ccncc1)n2Cc1c(F)cc(F)cc1F [Example 71] | < 30 nM
O=C1NCCc2c1c(-c1ccc(F)cc1)c(-c1ccncc1)n2Cc1ccncn1 [Example 72] | 100 to 15000 nM
O=C1NCCc2c1c(-c1ccc(F)cc1)c(-c1ccncc1)n2Cc1c(F)cccc1C(F)(F)F [Example 73] | < 30 nM
O=C1NCCc2c1c(-c1ccc(F)cc1)c(-c1ccncc1)n2Cc1ccc(Cl)cc1F [Example 74] | < 30 nM
CC(C)(C)CCn1c2c(c(-c3ccc(F)cc3)c1-c1ccncc1)C(=O)NCC2 [Example 75] | < 30 nM
O=C1NCCc2c1c(-c1ccc(F)cc1)c(-c1ccncc1)n2Cc1ccccn1 [Example 76] | 100 to 15000 nM

Compound | IC50
N#Cc1cccc(F)c1Cn1c2c(c(-c3ccc(F)cc3)c1-c1ccncc1)C(=O)NCC2 [Example 77] | < 30 nM
O=C1NCCc2c1c(-c1ccc(F)cc1)c(-c1ccncc1)n2CC1CCCC1 [Example 78] | < 30 nM
Cc1cc(Cn2c3c(c(-c4ccc(F)cc4)c2-c2ccncc2)C(=O)NCC3)no1 [Example 79] | 31 to 100 nM
Cn1ccnc1Cn1c2c(c(-c3ccc(F)cc3)c1-c1ccncc1)C(=O)NCC2 [Example 80] | 100 to 15000 nM
Cc1nc(Cn2c3c(c(-c4ccc(F)cc4)c2-c2ccncc2)C(=O)NCC3)no1 [Example 81] | 31 to 100 nM
O=C1NCCc2c1c(-c1ccc(F)cc1)c(-c1ccncc1)n2CCO [Example 82] | 100 to 15000 nM
CC(C)NC(=O)Cn1c2c(c(-c3ccc(F)cc3)c1-c1ccncc1)C(=O)NCC2 [Example 83] | 100 to 15000 nM
N#Cc1cc(F)c(Cn2c3c(c(-c4ccc(F)cc4)c2-c2ccncc2)C(=O)NCC3)c(F)c1 [Example 84] | < 30 nM
O=C(Nc1cc(-c2c(-c3ccc(F)cc3)c3c(n2CC2CCOCC2)CCNC3=O)ccn1)c1ccncc1 [Example 85] | 100 to 15000 nM
O=C(Nc1cc(-c2c(-c3ccc(F)cc3)c3c(n2CC2CCOCC2)CCNC3=O)ccn1)c1ccccc1 [Example 86] | 100 to 15000 nM
O=C1NCCc2c1c(-c1ccc(F)cc1)c(-c1ccnc(NC(=O)C3CC3)c1)n2CC1CCOCC1 [Example 87] | 31 to 100 nM
CC(C)C(=O)Nc1cc(-c2c(-c3ccc(F)cc3)c3c(n2CC2CCOCC2)CCNC3=O)ccn1 [Example 88] | 100 to 15000 nM
COc1ccc(C(=O)Nc2cc(-c3c(-c4ccc(F)cc4)c4c(n3CC3CCOCC3)CCNC4=O)ccn2)cc1 [Example 89] | 100 to 15000 nM
CCC(=O)Nc1cc(-c2c(-c3ccc(F)cc3)c3c(n2CC2CCOCC2)CCNC3=O)ccn1 [Example 90] | 100 to 15000 nM
CC(C)OC(=O)Nc1cc(-c2c(-c3ccc(F)cc3)c3c(n2CC2CCOCC2)CCNC3=O)ccn1 [Example 91] | 100 to 15000 nM
CS(=O)(=O)Nc1cc(-c2c(-c3ccc(F)cc3)c3c(n2CC2CCOCC2)CCNC3=O)ccn1 [Example 92] | 100 to 15000 nM
